Assay results from patent US20260034125A1, “N-PHENYL-1-(PHENYLSULFONYL)PIPERIDIN-4-AMINE DERIVATIVES AS CCR6 INHIBITORS” (priority 2023, published 2026).

Tested on: Human CD4+ T cells
Assay: CD4+ T cell chemotaxis assay towards CCL20
Assay type: cell-based
Conditions: relative -LogIC50, 150 ng/ml CCL20, Transwell, 3 h
Text: Human CD4+ T cells were isolated from buffy coats of healthy donors using a CD4+ T Cell Isolation Kit (Miltenyi Biotec130-096-533). Isolated T cells were stimulated overnight with anti-CD3 and anti-CD28 antibodies (Biolegend 300314/302934) in growth medium (RPMI1640, 10% heat-inactivated FBS, 1× pen/strep (Gibco 15140)). For the chemotaxis assay, Corning Transwell plates were used with a pore size of 5 μm (Corning 3388). T cells were counted and diluted to 6*10^6 cells/ml in chemotaxis medium (RPMI1640, 1% BSA, pen/strep). Compounds were four-fold serially diluted in DMSO. Further dilutions were made in chemotaxis medium. Cells were incubated with test compounds for 30 min at 37° C. prior to initiation of the assay (3*10^6 cells/ml). Final DMSO concentration in the assay was 0.2%. Wells of the Transwell plates were filled with 200 μl chemotaxis medium containing 150 ng/ml CCL20 (R&D systems 360-MP). 50 μl of the cell/compound suspension was added to the inserts of the Transwell plates (150,000 cells/insert). The Transwell plates were placed in an incubator at 37° C., 5% CO2 for 3 h. After 3 h, the number of migrated cells was quantified using CellTiter Glo (Promega). Percentage inhibition values were calculated based on the low and high signal obtained with 0.2% DMSO in chemotaxis medium without and with CCL20, respectively. The relative −LogIC50 was determined with GraphPad Prism 9 using a four-parameter dose-response model.

Row | IC50 | SMILES
1 | 15.8 nM | Cc1nnc2ccc(-c3ccc(S(=O)(=O)N4CCC(Nc5ccc(C6(C(F)(F)F)CC6)cn5)CC4)cc3)cn12 [Example 47, N-[1-(4-{3-methyl-[1,2,4]triazolo[4,3-a]pyridin-6-yl}benzenesulfonyl)piperidin-4-yl]-5-[1-(trifluoromethyl)cyclopropyl]pyridin-2-amine]

Biological target: T1, human CCR6 (Homo sapiens, UniProt P51684)
T1 sequence (P51684 1-374): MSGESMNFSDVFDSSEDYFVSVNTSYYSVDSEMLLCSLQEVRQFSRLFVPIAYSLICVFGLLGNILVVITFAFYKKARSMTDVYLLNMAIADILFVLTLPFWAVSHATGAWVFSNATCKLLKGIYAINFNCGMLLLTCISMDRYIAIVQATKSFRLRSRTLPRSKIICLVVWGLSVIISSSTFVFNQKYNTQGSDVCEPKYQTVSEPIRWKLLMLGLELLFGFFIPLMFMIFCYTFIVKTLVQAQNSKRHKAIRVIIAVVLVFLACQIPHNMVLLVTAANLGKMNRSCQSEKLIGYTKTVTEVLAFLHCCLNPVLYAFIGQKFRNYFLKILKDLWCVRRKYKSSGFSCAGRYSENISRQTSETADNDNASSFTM
Assay: Human CCR6-Cre reporter assay
Assay type: cell-based
Design: The second construct contained the open reading frame of human CCR6 in the pUNO1 backbone; host or cells: 293 FT cells
Conditions: relative -LogIC50; transfected 293 FT cells, 6 μM Forskolin, 6 nM CCL20, luciferase readout, 5h
Experimental: 293 FT cells were transfected with 2 constructs using TransIT-293 (Mirus). The first construct (pGL4.29, Promega) expressed the luciferase reporter gene luc2P in response to the binding of cAMP-induced CREB to the CRE element in its promoter. The second construct contained the open reading frame of human CCR6 in the pUNO1 backbone under the control of an enhanced CMV promoter (In VivoGen). 48h after transfection, cells were harvested and diluted to 750,000 cells/ml in culture medium (DMEM, 10% FBS, 1× pen/strep (Gibco 15140)). Compounds were 2.5-fold serially diluted in DMSO. Further dilutions were made in assay medium (DMEM, 10% FBS, 1× pen/strep, 6 μM Forskolin, 6 nM CCL20). 4 μl of the compound solution was added to a white MW384 plate, followed by 20 μl of the cell suspension. Final DMSO concentration in the assay was 0.1%. The MW384 plate was placed in an incubator at 37° C., 5% CO2 for 5h. Luciferase activity was determined by addition of 24 μl of a 2.5× diluted BriteLite luciferase solution (Perkin Elmer), followed by luminescence measurement using a VICTOR Plate reader (Perkin Elmer). […] The relative-LogIC50 was determined with GraphPad Prism 9 using a four-parameter dose-response model.

Row | SMILES | IC50
2 | O=S(=O)(c1ccc(-c2ccc3nccn3c2)cc1)[C@H]1CC[C@H](Nc2ccc(C3CC3(F)F)cc2)CC1 (stereo partly drawn) [Example 14, 4-(2,2-difluorocyclopropyl)-N-[trans-4-(4-{imidazo[1,2-a]pyridin-6-yl}benzenesulfonyl)cyclohexyl]aniline] | 251 nM
3 | N#CC1(c2ccc(NC3CCN(S(=O)(=O)c4ccc(N5CCC6(CCNC6=O)CC5)cc4)CC3)nc2)CC1 [Example 28, 1-(6-{[1-(4-{1-oxo-2,8-diazaspiro[4.5]decan-8-yl}benzenesulfonyl)piperidin-4-yl]amino}pyridin-3-yl)cyclopropane-1-carbonitrile] | 39800 nM
4 | CC(C)c1cnc2ccc(-c3ccc(S(=O)(=O)N4CCC(Nc5ccc(C6(C(F)(F)F)CC6)cn5)CC4)cc3)cn12 [Example 38, N-(1-{4-[3-(propan-2-yl)imidazo[1,2-a]pyridin-6-yl]benzenesulfonyl}piperidin-4-yl)-5-[1-(trifluoromethyl)cyclopropyl]pyridin-2-amine] | 63.1 nM
5 | N#CC1(c2ccc(NC3CCN(S(=O)(=O)c4ccc(N5CCC6(CC5)CC(=O)NC(=O)C6)cc4)CC3)nc2)CC1 [Example 26, 1-(6-{[1-(4-{8,10-dioxo-3,9-diazaspiro[5.5]undecan-3-yl}benzenesulfonyl)piperidin-4-yl]amino}pyridin-3-yl)cyclopropane-1-carbonitrile] | 2510 nM
6 | O=S(=O)(c1ccc(-c2ccc3nccn3c2)cc1)[C@H]1CC[C@H](Nc2ccc(C3COC3)cc2)CC1 [Example 18, 4-(oxetan-3-yl)-N-[trans-4-(4-{imidazo[1,2-a]pyridin-6-yl}benzenesulfonyl)cyclohexyl]aniline] | 398 nM
7 | N#Cc1ccc(-c2ccc(S(=O)(=O)N3CCC(Nc4ccc(C5(C#N)CC5)cc4)CC3)cc2)cc1 [Example 1, 4′-[(4-{[4-(1-cyanocyclopropyl)phenyl]Amino}piperidin-1-yl)sulfonyl]-[1,1′-biphenyl]-4-carbonitrile] | 501 nM
8 | Cc1n[nH]c2ccc(-c3ccc(S(=O)(=O)N4CCC(Nc5ccc(C6CC6)cc5)CC4)cc3)cc12 [Example 11, N-(4-cyclopropylphenyl)-1-[4-(3-methyl-1H-indazol-5-yl)benzenesulfonyl]piperidin-4-amine] | 501 nM
9 | N#CC1(c2ccc(NC3CCN(S(=O)(=O)c4ccc(N5CCC(CNC(N)=O)CC5)cc4)CC3)nc2)CC1 [Example 25, [(1-{4-[(4-{[5-(1-cyanocyclopropyl)pyridin-2-yl]amino}piperidin-1-yl)sulfonyl]phenyl}piperidin-4-yl)methyl]urea] | 12600 nM
10 | N#CC1(c2ccc(NC3CCN(S(=O)(=O)c4ccc(N5CCC(CC(N)=O)CC5)cc4)CC3)nc2)CC1 [Example 24, 2-(1-{4-[(4-{[5-(1-cyanocyclopropyl)pyridin-2-yl]amino}piperidin-1-yl)sulfonyl]phenyl}piperidin-4-yl) acetamide] | 5010 nM
11 | Cc1n[nH]c2ccc(-c3ccc(S(=O)(=O)N4CCC(Nc5ccc(C6(C(F)(F)F)CC6)cc5)CC4)cc3)cc12 [Example 2, 1-[4-(3-methyl-1H-indazol-5-yl)benzenesulfonyl]-N-{4-[1-(trifluoromethyl)cyclopropyl]phenyl}piperidin-4-amine] | 79.4 nM

Next, values leading:

Row | IC50 | SMILES
12 | 100 nM | O=S(=O)(c1ccc(-c2ccc3nccn3c2)cc1)N1CCC(Nc2ccc(C3(C(F)(F)F)CC3)cc2)CC1 [Example 9, 1-(4-{imidazo[1,2-a]pyridin-6-yl}benzenesulfonyl)-N-{4-[1-(trifluoromethyl)cyclopropyl]phenyl}piperidin-4-amine]
13 | 39.8 nM | N#Cc1c[nH]c2ccc(-c3ccc(S(=O)(=O)N4CCC(Nc5ccc(C6(C(F)(F)F)CC6)cc5)CC4)cc3)cc12 [Example 8, 5-(4-{[4-({4-[1-(trifluoromethyl)cyclopropyl]phenyl}Amino)piperidin-1-yl]sulfonyl}phenyl)-1H-indole-3-carbonitrile]
14 | 10000 nM | N#CC1(c2ccc(NC3CCN(S(=O)(=O)c4ccc(N5CCC6(CC5)COC6)cc4)CC3)nc2)CC1 [Example 29, 1-(6-{[1-(4-{2-oxa-7-azaspiro[3.5]nonan-7-yl}benzenesulfonyl)piperidin-4-yl]amino}pyridin-3-yl)cyclopropane-1-carbonitrile]
15 | 7940 nM | N#CC1(c2ccc(NC3CCN(S(=O)(=O)c4ccc(N5CCC6(CC5)COC(=O)N6)cc4)CC3)nc2)CC1 [Example 27, 1-(6-{[1-(4-{2-oxo-3-oxa-1,8-diazaspiro[4.5]decan-8-yl}benzenesulfonyl)piperidin-4-yl]amino}pyridin-3-yl)cyclopropane-1-carbonitrile]
16 | 251 nM | N=S(=O)(c1ccc(-c2ccc3nccn3c2)cc1)[C@H]1CC[C@H](Nc2ccc(C3(C(F)(F)F)CC3)cc2)CC1 (stereo partly drawn) [Example 13, (4-{imidazo[1,2-a]pyridin-6-yl}phenyl) [trans-4-({4-[1-(trifluoromethyl)cyclopropyl]phenyl}Amino)cyclohexyl](imino)-26-sulfanone]
17 | 1260 nM | COC1CC2(CCN(c3ccc(S(=O)(=O)N4CCC(Nc5ccc(C6(C#N)CC6)cn5)CC4)cc3)CC2)C1 [Example 23, 1-(6-{[1-(4-{2-methoxy-7-azaspiro[3.5]nonan-7-yl}benzenesulfonyl)piperidin-4-yl]amino}pyridin-3-yl)cyclopropane-1-carbonitrile]
18 | 200 nM | CC(C)c1cnc2ccc(-c3ccc(S(=O)(=O)N4CCC(Nc5ccc(C6(C#N)CC6)cn5)CC4)cc3)cn12 [Example 34, 1-{6-[(1-{4-[3-(propan-2-yl)imidazo[1,2-a]pyridin-6-yl]benzenesulfonyl}piperidin-4-yl)amino]pyridin-3-yl}cyclopropane-1-carbonitrile]
19 | 794 nM | N#CC1(c2ccc(NC3CCN(S(=O)(=O)c4ccc(-c5ccc6nccn6c5)cc4)CC3)nc2)CC1 [Example 33, 1-(6-{[1-(4-{imidazo[1,2-a]pyridin-6-yl}benzenesulfonyl)piperidin-4-yl]amino}pyridin-3-yl)cyclopropane-1-carbonitrile]
20 | 100 nM | CC(C)c1cnc2ccc(-c3ccc(S(=O)(=O)N4CCC(Nc5ccc(C6(C(F)(F)F)CC6)cc5)CC4)cc3)cn12 [Example 10, 1-{4-[3-(propan-2-yl)imidazo[1,2-a]pyridin-6-yl]benzenesulfonyl}-N-{4-[1-(trifluoromethyl)cyclopropyl]phenyl}piperidin-4-amine]
21 | 63.1 nM | CC(C)c1nnc2cnc(-c3ccc(S(=O)(=O)N4CCC(Nc5ccc(C6(C(F)(F)F)CC6)cn5)CC4)cc3)cn12 [Example 39, N-(1-{4-[3-(propan-2-yl)-[1,2,4]triazolo[4,3-a]pyrazin-6-yl]benzenesulfonyl}piperidin-4-yl)-5-[1-(trifluoromethyl)cyclopropyl]pyridin-2-amine]
22 | 158 nM | N#CC1(c2ccc(N[C@H]3CC[C@H](S(=O)(=O)c4ccc(-c5ccc6nccn6c5)cc4)CC3)cc2)CC1 [Example 15, 1-(4-{[trans-4-(4-{imidazo[1,2-a]pyridin-6-yl}benzenesulfonyl)cyclohexyl]Amino}phenyl)cyclopropane-1-carbonitrile]
